Active and inactive are the calls of the source. No cut-off for these calls is given here.
Experiments:
[1] = target: c-Jun N-terminal kinase (Mus musculus) (UniProt Q91Y86+Q9WTU6+Q61831); assay: Inhibition of JNK in mouse NIH-3T3 cells assessed as inhibition of anisomycin-activated c-Jun phosphorylation preincubated for 1 hrs followed by anisomycin activation for 1 hrs by Western blot analysis; assay type: cell-based; details: NIH3T3, dose 2-50 µM, time 2.0 hrs
[2] = Tmax in Sprague-Dawley rat at 75 mg/kg, po by HPLC-UV analysis; assay type: ADME, organism-based; details: in vivo
Mus musculus [3] = assay: Anti-fibrotic activity in bleomycin-induced C57BL/6 mouse model of pulmonary fibrosis assessed as reduction in mortality rate at 25 mg/kg, po administered twice a day for 3 weeks (reference value: 43%); assay type: functional; set-up: scale not given: the % may be the effect or the level left
Mus musculus [4] = assay: Anti-fibrotic activity in bleomycin-induced C57BL/6 mouse model of pulmonary fibrosis assessed as reduction in collagen accumulation at 25 to 75 mg/kg, po administered twice a day for 3 weeks by Masson's trichome staining based analysis; assay type: functional, organism-based; details: dose 25-75 mg/kg
[5] = target: T1, Mitogen-activated protein kinase 8 (Homo sapiens, UniProt P45983); assay: Inhibition of N-terminal GST-tagged recombinant full length human JNK1 expressed in baculovirus infected Sf9 insect cells using IPTTPITTTYFFFKKK as substrate at 0.1 uM incubated for 60 mins in the presence of ATP by ADP-Glo reagent based luminescence assay relative to control
T1 sequence (P45983 whole entry): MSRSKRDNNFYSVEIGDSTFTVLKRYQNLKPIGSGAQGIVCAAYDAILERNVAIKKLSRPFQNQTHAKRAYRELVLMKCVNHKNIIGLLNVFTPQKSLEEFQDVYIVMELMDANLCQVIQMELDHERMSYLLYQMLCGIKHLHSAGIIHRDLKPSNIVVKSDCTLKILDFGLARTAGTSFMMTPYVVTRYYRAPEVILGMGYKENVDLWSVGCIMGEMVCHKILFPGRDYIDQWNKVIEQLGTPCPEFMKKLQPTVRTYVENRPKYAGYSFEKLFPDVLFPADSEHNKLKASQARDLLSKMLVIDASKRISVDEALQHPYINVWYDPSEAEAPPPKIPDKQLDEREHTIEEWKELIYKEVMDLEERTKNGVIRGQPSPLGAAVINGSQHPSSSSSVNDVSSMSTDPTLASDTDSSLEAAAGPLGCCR

[6] = target: T2, Dual specificity mitogen-activated protein kinase kinase 7 (Homo sapiens) (UniProt O14733); assay: Inhibition of MAP2K7 (unknown origin) at 1 uM preincubated for 10 mins followed by substrate addition and measured after 60 mins in the presence of ATP by ADP-Glo reagent based luminescence assay relative to control; details: time 70.0 min
T2 sequence (whole entry): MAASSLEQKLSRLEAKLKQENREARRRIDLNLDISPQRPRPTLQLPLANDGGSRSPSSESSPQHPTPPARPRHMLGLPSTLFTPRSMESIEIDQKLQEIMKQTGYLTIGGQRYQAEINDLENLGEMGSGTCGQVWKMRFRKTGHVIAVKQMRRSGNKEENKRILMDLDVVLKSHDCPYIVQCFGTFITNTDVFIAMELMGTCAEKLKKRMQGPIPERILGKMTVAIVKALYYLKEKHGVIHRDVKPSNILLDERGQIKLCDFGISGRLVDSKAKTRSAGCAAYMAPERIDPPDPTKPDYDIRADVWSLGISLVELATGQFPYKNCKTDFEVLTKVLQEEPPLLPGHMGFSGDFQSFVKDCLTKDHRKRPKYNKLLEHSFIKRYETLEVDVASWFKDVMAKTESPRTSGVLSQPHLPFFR

[7] = target: Mitogen-activated protein kinase 11 (Homo sapiens) (UniProt Q15759); assay: Inhibition of p38beta (unknown origin) at 1 uM preincubated for 10 mins followed by substrate addition and measured after 60 mins in the presence of ATP by ADP-Glo reagent based luminescence assay relative to control; details: time 70.0 min
Sequence of Mitogen-activated protein kinase 11 (Homo sapiens) (Q15759 whole entry): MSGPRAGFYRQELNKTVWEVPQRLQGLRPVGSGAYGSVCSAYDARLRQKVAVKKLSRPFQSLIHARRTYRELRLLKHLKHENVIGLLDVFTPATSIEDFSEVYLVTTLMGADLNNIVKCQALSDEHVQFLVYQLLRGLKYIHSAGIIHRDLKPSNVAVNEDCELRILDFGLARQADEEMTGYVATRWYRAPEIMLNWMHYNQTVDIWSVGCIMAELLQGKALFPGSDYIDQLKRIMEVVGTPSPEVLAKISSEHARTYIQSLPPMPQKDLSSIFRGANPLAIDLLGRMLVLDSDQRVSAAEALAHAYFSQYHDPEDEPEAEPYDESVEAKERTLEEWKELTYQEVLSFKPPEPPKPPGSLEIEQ

[8] = target: CDK6/cyclin D1 (Homo sapiens) (UniProt P24385+Q00534); assay: Inhibition of CDK6/Cyclin D1 (unknown origin) at 1 uM preincubated for 10 mins followed by substrate addition and measured after 60 mins in the presence of ATP by ADP-Glo reagent based luminescence assay; assay type: protein-complex assay; details: time 70.0 min
[9] = target: T3, Dual specificity mitogen-activated protein kinase kinase 4 (Homo sapiens) (UniProt P45985); assay: Inhibition of MAP2K4 (unknown origin) at 1 uM preincubated for 10 mins followed by substrate addition and measured after 60 mins in the presence of ATP by ADP-Glo reagent based luminescence assay relative to control; details: time 70.0 min
T3 sequence (whole entry): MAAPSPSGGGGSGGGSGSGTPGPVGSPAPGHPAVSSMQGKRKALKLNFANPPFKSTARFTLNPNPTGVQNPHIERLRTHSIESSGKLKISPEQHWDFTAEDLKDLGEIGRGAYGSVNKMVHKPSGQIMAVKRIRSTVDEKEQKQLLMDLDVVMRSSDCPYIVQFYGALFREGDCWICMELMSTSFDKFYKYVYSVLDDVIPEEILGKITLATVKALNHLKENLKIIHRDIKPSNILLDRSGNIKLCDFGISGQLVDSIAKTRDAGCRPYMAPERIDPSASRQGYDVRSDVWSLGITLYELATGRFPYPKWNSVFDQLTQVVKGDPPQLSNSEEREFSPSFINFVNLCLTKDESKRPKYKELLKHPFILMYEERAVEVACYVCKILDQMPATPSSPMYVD

[10] = Apparent volume of distribution in Sprague-Dawley rat at 5 mg/kg, iv by HPLC-UV analysis; assay type: ADME, organism-based; details: in vivo, read-out: Vz
[11] = Clearance in Sprague-Dawley rat at 75 mg/kg, po by HPLC-UV analysis; assay type: ADME, organism-based; details: in vivo
[12] = target: T1, Mitogen-activated protein kinase 8; assay: Inhibition of N-terminal GST-tagged recombinant full length human JNK1 expressed in baculovirus infected Sf9 insect cells using IPTTPITTTYFFFKKK as substrate incubated for 60 mins in the presence of ATP by ADP-Glo reagent based luminescence assay
[13] = AUC(0 to infinity) in Sprague-Dawley rat at 5 mg/kg, iv by HPLC-UV analysis; assay type: ADME, organism-based; set-up: dose 5 mg/kg, route iv; details: in vivo
[14] = Half-life in Sprague-Dawley rat at 75 mg/kg, po by HPLC-UV analysis; assay type: ADME, organism-based; details: in vivo
Mus musculus [15] = assay: Anti-fibrotic activity in bleomycin-induced C57BL/6 mouse model of pulmonary fibrosis assessed as increase in respiratory function by measuring minute volume at 25 to 75 mg/kg, po administered twice a day for 3 weeks by spirometry analysis; assay type: functional, organism-based; details: dose 25-75 mg/kg
[16] = target: T4, c-Jun N-terminal kinase, JNK (Homo sapiens) (UniProt P45983+P53779+P45984); assay: Inhibition of JNK in HFL1 cells assessed as inhibition of anisomycin-activated c-Jun phosphorylation preincubated for 1 hrs followed by anisomycin activation for 1 hrs by Western blot analysis; assay type: cell-based; details: dose 2-50 µM, time 2.0 hrs
[17] = Cmax in Sprague-Dawley rat at 75 mg/kg, po by HPLC-UV analysis; assay type: ADME, organism-based; set-up: dose 75 mg/kg, route po; details: in vivo
[18] = target: T4, c-Jun N-terminal kinase, JNK (Homo sapiens); assay: Inhibition of JNK in human BEAS-2B cells assessed as inhibition of anisomycin-activated c-Jun phosphorylation preincubated for 1 hrs followed by anisomycin activation for 1 hrs by Western blot analysis; assay type: cell-based; details: dose 2-50 µM, time 2.0 hrs
[19] = target: Mitogen-activated protein kinase 10 (Homo sapiens, UniProt P53779); assay: Inhibition of N-terminal GST-tagged recombinant full length human JNK3 expressed in baculovirus infected Sf9 cells using IPTTPITTTYFFFKKK as substrate at 1 uM incubated for 60 mins in the presence of ATP by ADP-Glo reagent based luminescence assay relative to control
Sequence of Mitogen-activated protein kinase 10 (P53779 whole entry): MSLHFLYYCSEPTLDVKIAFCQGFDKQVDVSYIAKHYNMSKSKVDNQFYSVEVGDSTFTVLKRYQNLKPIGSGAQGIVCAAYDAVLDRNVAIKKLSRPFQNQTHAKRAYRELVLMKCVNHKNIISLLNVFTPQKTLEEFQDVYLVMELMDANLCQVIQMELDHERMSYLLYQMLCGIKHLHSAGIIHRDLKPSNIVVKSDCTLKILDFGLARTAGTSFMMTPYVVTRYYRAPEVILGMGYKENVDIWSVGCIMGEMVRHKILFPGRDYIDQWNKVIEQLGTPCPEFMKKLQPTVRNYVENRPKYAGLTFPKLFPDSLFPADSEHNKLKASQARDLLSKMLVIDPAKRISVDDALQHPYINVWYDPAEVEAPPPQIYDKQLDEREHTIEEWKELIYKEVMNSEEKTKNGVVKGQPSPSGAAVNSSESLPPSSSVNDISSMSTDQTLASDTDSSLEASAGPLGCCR

[20] = target: CDK4/Cyclin D3 (Homo sapiens) (UniProt P11802+P30281); assay: Inhibition of CDK4/Cyclin D3 (unknown origin) at 1 uM preincubated for 10 mins followed by substrate addition and measured after 60 mins in the presence of ATP by ADP-Glo reagent based luminescence assay; assay type: protein-complex assay; details: time 70.0 min
[21] = target: Cyclin-dependent kinase 2/cyclin E1 (Homo sapiens) (UniProt P24864+P24941); assay: Inhibition of CDK2/Cyclin E1 (unknown origin) at 1 uM preincubated for 10 mins followed by substrate addition and measured after 60 mins in the presence of ATP by ADP-Glo reagent based luminescence assay relative to control; assay type: protein-complex assay; details: time 70.0 min

Sequence of c-Jun N-terminal kinase (Mus musculus) (Q61831 whole entry, looked up): as the sequence (P53779 whole entry) above, with Q27H, Y32S, D267S, A345V, G412S, S432A counted along it
Sequence of c-Jun N-terminal kinase (Mus musculus) (Q91Y86 whole entry, looked up): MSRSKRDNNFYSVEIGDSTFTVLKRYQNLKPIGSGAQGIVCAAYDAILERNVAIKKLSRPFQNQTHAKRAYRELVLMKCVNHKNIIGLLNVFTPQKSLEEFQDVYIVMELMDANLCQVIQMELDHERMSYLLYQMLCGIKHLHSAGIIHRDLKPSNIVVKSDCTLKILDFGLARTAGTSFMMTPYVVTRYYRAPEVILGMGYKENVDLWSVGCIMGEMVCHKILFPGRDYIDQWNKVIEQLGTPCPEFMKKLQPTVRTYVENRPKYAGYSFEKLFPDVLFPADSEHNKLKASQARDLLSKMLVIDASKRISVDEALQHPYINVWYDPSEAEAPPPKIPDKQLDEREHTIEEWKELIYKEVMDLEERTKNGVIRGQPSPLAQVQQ
Sequence of c-Jun N-terminal kinase (Mus musculus) (Q9WTU6 whole entry, looked up): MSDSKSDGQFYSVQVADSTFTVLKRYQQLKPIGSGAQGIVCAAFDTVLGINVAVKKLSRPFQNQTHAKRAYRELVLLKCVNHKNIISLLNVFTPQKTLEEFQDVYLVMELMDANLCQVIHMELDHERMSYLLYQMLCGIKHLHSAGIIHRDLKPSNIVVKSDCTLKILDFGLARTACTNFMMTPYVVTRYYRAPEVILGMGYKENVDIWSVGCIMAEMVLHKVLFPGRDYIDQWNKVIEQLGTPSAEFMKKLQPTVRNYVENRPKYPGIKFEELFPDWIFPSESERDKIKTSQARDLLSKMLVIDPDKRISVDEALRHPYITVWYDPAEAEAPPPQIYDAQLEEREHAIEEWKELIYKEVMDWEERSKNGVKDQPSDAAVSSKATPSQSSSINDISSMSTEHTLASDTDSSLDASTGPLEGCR

Structure (SMILES): CC(C)(C)CNc1ncc(Br)c(Nc2ccccc2C(N)=O)n1
- inhibition [1]: Dose-Dependent Effect
- Tmax [2]: 1.38 h
- Activity (Mus musculus [3]): 14%
- Activity (Mus musculus [4]): Active
- inhibition [5]: 71.1%
- inhibition [6]: 8.7%
- inhibition [7]: 9.6%
- inhibition [8]: 17%
- inhibition [9]: 93.8%
- Vd [10]: 20.3 L/kg
- CL/F [11]: 860 mL/min/kg
- IC50 [12]: 33.5 nM
- AUC(0-inf) [13]: 868 ng·h/mL
- half-life [14]: 4.22 h
- Activity (Mus musculus [15]): Active
- inhibition [16]: Dose-Dependent Effect
- Cmax [17]: 488 ng/mL
- inhibition [18]: Dose-Dependent Effect
- inhibition [19]: 99.6%
- inhibition [20]: 41.9%
- inhibition [21]: 60.3%

Source: ChEMBL document CHEMBL5370528, “Synthesis-accessibility-oriented design of c-Jun N-terminal kinase 1 inhibitor” (Eur J Med Chem, 2023)
